In the supplement of paper PMC10307832:

What was measured:
Assay in all cases: relative viability (nuclei count vs DMSO), 5 days (fraction); higher = more cells survive
AZ628 + Pemetrexed = compound: CC1=C(C=C(C=C1)NC(=O)C2=CC(=CC=C2)C(C)(C)C#N)NC3=CC4=C(C=C3)N=CN(C4=O)C [AZ628] + Nc1nc2[nH]cc(CCc3ccc(C(=O)N[C@@H](CCC(=O)O)C(=O)O)cc3)c2c(=O)[nH]1 [Pemetrexed] (partner 0.2 µM)
Method in brief: (§1)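 Lung cancer cell lines, seeded in 1536-well plates, were treated the following day by pin tool with a single drug or with five library-drug doses (not always all listed) in √10 steps on top of a fixed anchor-drug dose. Cells were fixed and nuclei stained in one step after 5 days, and nuclei were counted. Relative viability is the nuclei count for treated wells divided by that for vehicle wells, reported as medians of duplicate plates.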

QS11 + Dasatinib = compound: C1CC2=C(C1)C=C(C=C2)OC3=NC(=C4C(=N3)N(C=N4)CC5=CC=C(C=C5)C6=CC=CC=C6)N[C@@H](CC7=CC=CC=C7)CO [QS11] + Cc1nc(Nc2ncc(C(=O)Nc3c(C)cccc3Cl)s2)cc(N2CCN(CCO)CC2)n1 [Dasatinib] (partner 0.075 µM)
Method in brief: as §1

QS11 + Alpelisib = compound: C1CC2=C(C1)C=C(C=C2)OC3=NC(=C4C(=N3)N(C=N4)CC5=CC=C(C=C5)C6=CC=CC=C6)N[C@@H](CC7=CC=CC=C7)CO [QS11] + Cc1nc(NC(=O)N2CCC[C@H]2C(N)=O)sc1-c1ccnc(C(C)(C)C(F)(F)F)c1 [Alpelisib] (partner 2 µM)
Method in brief: as §1

AZ628 + OSI-027 = compound: CC1=C(C=C(C=C1)NC(=O)C2=CC(=CC=C2)C(C)(C)C#N)NC3=CC4=C(C=C3)N=CN(C4=O)C [AZ628] + COc1cccc2cc(-c3nc([C@H]4CC[C@H](C(=O)O)CC4)n4ncnc(N)c34)[nH]c12 [OSI-027] (partner 0.5 µM)
Method in brief: as §1

Cell Line | relative viability (AZ628 + Pemetrexed; first compound 0.08 µM) | relative viability (AZ628 + Pemetrexed; first compound 0.253 µM) | relative viability (AZ628 + Pemetrexed; first compound 0.8 µM) | relative viability (AZ628 + Pemetrexed; first compound 2.53 µM) | relative viability (AZ628 + Pemetrexed; first compound 8 µM) | relative viability (QS11 + Dasatinib; first compound 0.08 µM) | relative viability (QS11 + Dasatinib; first compound 0.253 µM) | relative viability (QS11 + Dasatinib; first compound 0.8 µM) | relative viability (QS11 + Dasatinib; first compound 2.53 µM) | relative viability (QS11 + Dasatinib; first compound 8 µM) | relative viability (QS11 + Alpelisib; first compound 0.08 µM) | relative viability (QS11 + Alpelisib; first compound 0.253 µM) | relative viability (QS11 + Alpelisib; first compound 0.8 µM) | relative viability (QS11 + Alpelisib; first compound 2.53 µM) | relative viability (QS11 + Alpelisib; first compound 8 µM) | relative viability (AZ628 + OSI-027; first compound 0.08 µM) | relative viability (AZ628 + OSI-027; first compound 0.253 µM) | relative viability (AZ628 + OSI-027; first compound 0.8 µM) | relative viability (AZ628 + OSI-027; first compound 2.53 µM) | relative viability (AZ628 + OSI-027; first compound 8 µM)
CAL-12T | 1.37 | 1.18 | 1.15 | 1.33 | 0.716 | 0.4 | 0.365 | 0.466 | 0.368 | 0.334 | 1.28 | 1.13 | 1.25 | 0.952 | 1.06 | 0.891 | 0.572 | 0.408 | 0.345 | 0.267
NCI-H1648 | 1.06 | 0.702 | 0.614 | 0.549 | 0.642 | – | – | – | – | – | – | – | – | – | – | 0.254 | 0.276 | 0.253 | 0.255 | 0.244
NCI-H358 | 0.172 | 0.159 | 0.152 | 0.142 | 0.142 | 0.144 | 0.171 | 0.189 | 0.393 | 0.656 | 0.914 | 0.857 | 1.02 | 1.5 | 1.35 | 0.647 | 0.602 | 0.403 | 0.354 | 0.286
NCI-H3122 | 0.185 | 0.166 | 0.161 | 0.159 | 0.151 | 0.876 | 0.82 | – | 0.969 | 0.538 | 0.879 | 1 | 0.745 | 1.12 | 0.839 | 0.559 | 0.344 | 0.287 | 0.267 | 0.16
NCI-H2347 | 0.401 | 0.415 | 0.354 | 0.464 | 0.321 | 0.279 | 0.297 | 0.308 | 0.274 | 0.308 | 1.11 | 1.06 | 0.929 | 0.918 | 1.21 | 0.337 | 0.377 | 0.396 | 0.339 | 0.254
HCC-15 | 0.231 | 0.204 | 0.211 | 0.226 | 0.206 | 0.649 | 0.611 | 0.532 | 0.73 | 0.49 | 0.749 | 1.01 | – | 0.936 | 0.731 | 0.751 | 0.582 | 0.461 | 0.433 | 0.236
HCC-366 | 0.156 | 0.215 | 0.225 | 0.169 | 0.161 | 0.7 | 0.616 | – | 0.578 | 0.576 | 0.55 | 0.361 | – | 0.296 | 0.244 | 0.895 | 0.63 | 0.662 | 0.62 | 0.209
BEN | 0.776 | 0.614 | 0.737 | 0.716 | 0.749 | 0.29 | 0.37 | 0.352 | 0.325 | 0.33 | 0.772 | 1.22 | 1.12 | 1.01 | 1.29 | 0.318 | 0.278 | 0.32 | 0.281 | 0.267
NCI-H1993 | 0.631 | 0.598 | 0.47 | 0.488 | 0.461 | 0.558 | 0.508 | 0.618 | 0.684 | 0.528 | 0.559 | 0.643 | 0.693 | 0.699 | 0.668 | 0.541 | 0.578 | 0.53 | 0.594 | 0.577
NCI-H2405 | 0.839 | 0.698 | 0.673 | 0.632 | 0.624 | 0.196 | 0.2 | 0.206 | 0.276 | 0.325 | 0.709 | 0.745 | 0.884 | 0.998 | 0.902 | 0.482 | 0.37 | 0.393 | 0.353 | 0.345
NCI-H2126 | 0.757 | 0.665 | 0.586 | 0.655 | 0.588 | 0.604 | 0.505 | 0.616 | 0.61 | 0.566 | 0.74 | 0.794 | 0.708 | 0.75 | 0.731 | 0.793 | 0.655 | 0.651 | 0.728 | 0.594
NCI-H1703 | – | – | – | – | – | – | – | – | – | – | 0.322 | 0.409 | 0.32 | 0.331 | 0.446 | – | – | – | – | –
Calu-6 | – | – | – | – | – | – | – | – | – | – | 0.98 | 0.974 | 0.856 | 0.99 | 0.884 | – | – | – | – | –
NCI-H1650 | 0.403 | 0.386 | 0.419 | 0.431 | 0.38 | 0.288 | 0.27 | 0.329 | 0.308 | 0.284 | – | – | – | – | – | 0.642 | 0.793 | 0.666 | 0.557 | 0.458
IA-LM | – | – | – | – | – | – | – | – | – | – | 0.665 | 0.747 | 0.378 | 0.826 | 0.473 | – | – | – | – | –
A549 | – | – | – | – | – | – | – | – | – | – | 0.912 | 0.757 | 0.691 | 0.451 | 0.215 | – | – | – | – | –
EBC-1 | – | – | – | – | – | – | – | – | – | – | 0.932 | 0.77 | 0.76 | 0.816 | 0.667 | – | – | – | – | –
NCI-H1623 | – | – | – | – | – | 0.502 | 0.567 | 0.66 | 0.544 | 0.641 | – | – | – | – | – | 0.452 | 0.388 | 0.245 | 0.36 | 0.225
NCI-H522 | 0.903 | 1.02 | 0.874 | 0.93 | 0.645 | 0.857 | 0.826 | 0.922 | 0.975 | 1.07 | – | – | – | – | – | 0.799 | 0.668 | 0.658 | 0.644 | 0.641
NCI-H727 | – | – | – | – | – | 0.297 | 0.467 | 0.353 | 0.554 | 0.438 | 0.509 | 0.99 | 0.593 | 0.54 | 0.325 | 0.626 | 0.402 | 0.328 | 0.397 | 0.338
NCI-H1299 | – | – | – | – | – | – | – | – | – | – | 1.09 | 1.1 | 1.02 | 0.962 | 1.05 | – | – | – | – | –
SW 900 | 0.495 | 0.489 | 0.471 | 0.461 | 0.451 | 0.629 | 0.529 | 0.428 | 0.417 | 0.521 | – | – | – | – | – | 0.61 | 0.566 | 0.501 | 0.345 | 0.474
